One assay concerns SMN2. The assay is described as follows: Gene panel canonical junction qPCR assay, SMN2 CJ mRNA (Table 7). The settings on record: Homo sapiens, read-out: SMN2 CJ mRNA decrease IC50. It is filed as cell-based. In outline:
(§1)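 A673 or K562 cells treated with compound; canonical exon-junction mRNA measured by RT-qPCR with junction-spanning primers/probe, normalised to GAPDH, GUSB or PPIA and DMSO (ΔΔCt, RQ). Percentage response set from fixed ΔCt assay windows, fitted to a 4-parameter logistic; IC50 is concentration giving 50% CJ decrease.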
Background: In qPCR the cycle at which signal appears reflects the starting amount.

The test system of assay [1] is HTT. The assay is described as follows: Gene panel canonical junction qPCR assay, HTT CJ mRNA (Table 7). It is filed as cell-based, human. The settings on record: read-out: HTT CJ mRNA decrease IC50. In outline:
as §1

In the next assay the test system is MYB. The assay is described as follows: RT-qPCR splicing assay, MYB AJ/CJ mRNA. Format: cell-based. The settings on record: Homo sapiens, A673 or K562 cells, 24 hours; for IC50: decrease in canonical junction mRNA; for AC50: increase in alternative junction mRNA. In outline:
(§2)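 Cells: A673 (DMEM/10% FBS) or K562 (IMDM/10% FBS). Dosing: 11-pt 3-fold, top 10 uM final, DMSO ≤0.25%, 24 h, 37° C. Readout: one-step RT-qPCR on lysate, CJ vs AJ isoforms; ΔCt vs housekeeper, ΔΔCt vs DMSO, 2^(−ΔΔCt) RQ → % response.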

In assay [2] the test system is HTT. Put plainly: RT-qPCR splicing assay, HTT AJ/CJ mRNA. The settings on record: A673 or K562 cells; for IC50: decrease in canonical junction mRNA; for AC50: increase in alternative junction mRNA. It is filed as cell-based, human. The method in brief: as §2

Take `CC1(C)CC(Nc2ccc3c(n2)COc2cc(-n4cccn4)ccc2-3)CC(C)(C)N1` [Compound 134]: the concentration for half-maximal inhibition (IC50) was 1 to 10 µM in the assay with SMN2; 1 to 10 µM in the assay on HTT [1] (Homo sapiens); 1 to 10 µM in the assay with MYB; 1 to 10 µM in the assay with HTT [2] (Homo sapiens, 24 h). The half-maximal activity concentration (AC50) in the assay on MYB was more than 10 µM; with HTT [2] (Homo sapiens, 24 h), 1 to 10 µM.

Take `CN(c1cnc2c(n1)OCc1cc(-c3cn[nH]c3)ccc1-2)C1CC(C)(C)NC(C)(C)C1` [Compound 142]: the IC50 in the assay with SMN2, with HTT [1], with MYB and with HTT [2] (24 hours) was 0.1 to 1 µM throughout. In addition, the figures for the AC50 in the assay with MYB and in the assay with HTT [2] (24 hours) were 1 to 10 µM and 0.1 to 1 µM, respectively.

On to `c1cc2c(cc1-c1cn[nH]c1)COc1nc(N[C@@H]3C[C@H]4CC[C@@H](C3)N4)cnc1-2` [Compound 143], for which the IC50 in the assay with SMN2 lay in the range of 0.1 to 1 µM; with HTT [1] (Homo sapiens), 0.1 to 1 µM; with MYB, 0.1 to 1 µM; with HTT [2] (Homo sapiens, 24 h), 0.1 to 1 µM. Besides, the AC50 in the assay on MYB is 1 to 10 µM; in the assay on HTT [2] (Homo sapiens, 24 h) it was 0.1 to 1 µM.

Turning to `CN(c1cnc2c(n1)OCc1cc(-c3cn[nH]c3)ccc1-2)[C@@H]1C[C@H]2CC[C@@H](C1)N2` [Compound 144], the half-inhibitory concentration (IC50) in the assay with SMN2 was more than 10 µM; in the assay on HTT [1] (Homo sapiens), 0.1 to 1 µM; with MYB, 0.1 to 1 µM; with HTT [2] (Homo sapiens, 24 h) it was 0.1 to 1 µM. In addition, the half-maximal activity concentration (AC50) in the assay on MYB was 0.1 to 1 µM; in the assay on HTT [2] (Homo sapiens, 24 h) it was 0.1 to 1 µM.

Regarding `CN(c1ccc2c(n1)OCCc1cc(-c3cn[nH]c3)ccc1-2)C1CC(C)(C)NC(C)(C)C1` [Compound 145], the IC50 was 1 to 10 µM in the assay on SMN2; more than 10 µM in the assay on HTT [1] (Homo sapiens); 1 to 10 µM in the assay on MYB; more than 10 µM in the assay on HTT [2] (Homo sapiens, 24 h). Further, the concentration at half-maximal activity (AC50) was more than 10 µM in the assay with MYB and more than 10 µM with HTT [2] (Homo sapiens, 24 h).

As for `CN(c1ccc2c(n1)OCCc1cc(-c3cn[nH]c3)ccc1-2)[C@@H]1C[C@H]2CC[C@@H](C1)N2` [Compound 146], the 50% inhibitory concentration (IC50) is more than 10 µM in the assay with SMN2; 1 to 10 µM with HTT [1] (Homo sapiens); more than 10 µM in the assay with MYB; 1 to 10 µM in the assay on HTT [2] (Homo sapiens, 24 h). The AC50 in the assay on MYB was more than 10 µM; in the assay with HTT [2] (Homo sapiens, 24 h) it was 1 to 10 µM.

Consider `CN(c1ccc2c(n1)OCc1cc(-c3cn[nH]c3)ccc1-2)C1CC(C)(C)NC(C)(C)C1` [Compound 147], for which the half-maximal inhibitory concentration (IC50) was more than 10 µM in the assay with SMN2; 0.1 to 1 µM in the assay with HTT [1] (Homo sapiens); 1 to 10 µM in the assay with MYB; 0.1 to 1 µM in the assay with HTT [2] (Homo sapiens, 24 h). The AC50 with MYB was in the range of 1 to 10 µM; in the assay on HTT [2] (Homo sapiens, 24 h) it was 0.1 to 1 µM.

Consider `CN(c1ccc2c(n1)OCc1cc(-n3cccn3)ccc1-2)C1CC(C)(C)NC(C)(C)C1` [Compound 148], for which the IC50 with SMN2 was 0.1 to 1 µM; in the assay on HTT [1] (Homo sapiens), 1 to 10 µM; in the assay on MYB it was 1 to 10 µM; with HTT [2] (Homo sapiens, 24 h), 1 to 10 µM. In addition, the AC50 with MYB was in the range of 1 to 10 µM; in the assay with HTT [2] (Homo sapiens, 24 h), 1 to 10 µM.

For the compound `CN(c1ccc2c(n1)OCc1cc(-n3cccn3)ccc1-2)[C@@H]1C[C@H]2CC[C@@H](C1)N2` [Compound 149], the half-inhibitory concentration (IC50) in the assay with SMN2 fell in the range of 0.1 to 1 µM; in the assay on HTT [1] (Homo sapiens), 0.1 to 1 µM; with MYB it was 0.1 to 1 µM; in the assay with HTT [2] (Homo sapiens, 24 h) it was 0.1 to 1 µM. The half-maximal activity concentration (AC50) in the assay on MYB is 0.1 to 1 µM; in the assay on HTT [2] (Homo sapiens, 24 h), less than 0.1 µM.

In the case of `CN(c1ccc2c(n1)OCc1cc(-n3nccn3)ccc1-2)[C@@H]1C[C@H]2CC[C@@H](C1)N2` [Compound 151], the concentration for half-maximal inhibition (IC50) is less than 0.1 µM with SMN2; less than 0.1 µM in the assay on HTT [1] (Homo sapiens); 0.1 to 1 µM with MYB; less than 0.1 µM with HTT [2] (Homo sapiens, 24 h). The AC50 was 0.1 to 1 µM in the assay with MYB and less than 0.1 µM in the assay on HTT [2] (Homo sapiens, 24 h).

Turning to `CN(c1ccc2c(n1)OCc1cc(-n3ccnn3)ccc1-2)[C@@H]1C[C@H]2CC[C@@H](C1)N2` [Compound 152], the IC50 was less than 0.1 µM with SMN2; 0.1 to 1 µM in the assay with HTT [1] (Homo sapiens); 0.1 to 1 µM in the assay on MYB; 0.1 to 1 µM in the assay with HTT [2] (Homo sapiens, 24 h). In addition, the AC50 in the assay with MYB was 0.1 to 1 µM; with HTT [2] (Homo sapiens, 24 h), less than 0.1 µM.

As to `CN(c1ccc2c(n1)OCc1cc(-c3ccn(C)c(=O)c3)ccc1-2)[C@@H]1C[C@H]2CC[C@@H](C1)N2` [Compound 153], the IC50 in the assay with SMN2 is less than 0.1 µM; with HTT [1] (Homo sapiens), less than 0.1 µM; in the assay with MYB it was 0.1 to 1 µM; with HTT [2] (Homo sapiens, 24 h), less than 0.1 µM. Besides, the AC50 with MYB was less than 0.1 µM; with HTT [2] (Homo sapiens, 24 h) it was less than 0.1 µM.

For the compound `c1cc2c(cc1-c1cn[nH]c1)COc1nc(N3CCC34CCNC4)ccc1-2` (centres unmarked) [Compound 207], the IC50 in the assay on SMN2 is more than 10 µM; in the assay with HTT [1] (Homo sapiens), more than 10 µM; with MYB it was 1 to 10 µM. In the assay with MYB, this compound showed a half-maximal activity concentration (AC50) of 0.1 to 1 µM.

As for `Cc1ncc(-c2ccc3c(c2)COc2nc(O[C@@H]4C[C@H]5C[C@@H](C4)N5)ccc2-3)s1` [Compound 208], the figures for the half-maximal inhibitory concentration (IC50) with SMN2, in the assay with HTT [1] (Homo sapiens) and with MYB were less than 0.1 µM, less than 0.1 µM and 0.1 to 1 µM, respectively. In the assay on MYB, this compound showed an AC50 of 0.1 to 1 µM.

As usually defined, the IC50 is the midpoint of a concentration-inhibition curve. As usually defined, the AC50 is the concentration at which the activity in the assay is half-maximal. Read a high AC50 as weaker potency.

These data come from patent publication US20240400584A1, “COMPOUNDS AND METHODS FOR MODULATING SPLICING” (REMIX THERAPEUTICS INC., priority 2021, published 2024).
